# Experimental data reported in US7157569B2, “Mutation associated with epilepsy” (Bionomics Limited, priority 2000, dated 2007).
# Entries after “also recorded” stand apart in the source; their conditions may differ.
# Key:
# [1] = system: GABRA1:GABRB2:GABRG2(Q351X) GABAA receptor; experiment: GABA current response in Xenopus laevis oocytes, Q351X mutant; type: cell-based, human; details: 1:1:10 GABRA1:GABRB2:GABRG2(Q351X) cRNA injection ratio
# Method: (§1) To test the effects of the GABRG2 mutations on GABAA receptor function, electrophysiological analysis of Xenopus laevis oocytes were conducted. cDNAs encoding the GABRA1, GABRB2 and GABRG2 subunits of the human GABAA receptor were subcloned into pcDNA3.1(+). The c245G→A and c1168C→T mutations were introduced separately into GABRG2 of the human GABAA receptor using the QuickChange site directed mutagenesis kit (Stratagene, La Jolla, Calif.). The oligonucleotide represented by SEQ ID NO:50 (5′ GGATATGACAATAAACTTCAGCCTGATATAGGAGTGAAGCC 3′) was used to incorporate the c245G→A mutation, while the oligonucleotide represented by SEQ ID NO:51 (5′ GCGAATTCATTAAATGGTTGCTGATCTTGGGCG 3′) was used to incorporate the c1168C→T mutation. Successful mutagenesis was identified by DNA sequencing. Wild-type and mutant cDNAs were linearised and gel purified and cRNA was made using the T7 RNA polymerase Message Machine in vitro RNA synthesis kit (Ambion). Samples of cRNA were run on denaturing agarose gels to ensure they were the correct size and were not degraded. Xenopus laevis oocytes (stage V or VI) were microinjected with ˜25 ng of cRNA representing the GABAA subunits. A tenfold molar excess of wild-type and mutant GABRG2 was used to promote assembly of the ternary (GABRA1:GABRB2:GABRG2) rather than binary (GABRA1:GABRB2) complex. […]
# [2] = molecular target: T1, GABRA1:GABRB2:GABRG2 wild-type GABAA receptor (Homo sapiens, UniProt P14867+P18507+P47870); experiment: GABA current response in Xenopus laevis oocytes, wild-type GABRG2; type: cell-based; details: 1:1:10 ratio with wild-type GABRG2
# T1 construct: expressed in transfected cells; host or cells: Xenopus laevis oocytes (cRNA injection)
# T1 sequence (P18507 40-467 isoform P18507-1 limits assumed, one chain of several): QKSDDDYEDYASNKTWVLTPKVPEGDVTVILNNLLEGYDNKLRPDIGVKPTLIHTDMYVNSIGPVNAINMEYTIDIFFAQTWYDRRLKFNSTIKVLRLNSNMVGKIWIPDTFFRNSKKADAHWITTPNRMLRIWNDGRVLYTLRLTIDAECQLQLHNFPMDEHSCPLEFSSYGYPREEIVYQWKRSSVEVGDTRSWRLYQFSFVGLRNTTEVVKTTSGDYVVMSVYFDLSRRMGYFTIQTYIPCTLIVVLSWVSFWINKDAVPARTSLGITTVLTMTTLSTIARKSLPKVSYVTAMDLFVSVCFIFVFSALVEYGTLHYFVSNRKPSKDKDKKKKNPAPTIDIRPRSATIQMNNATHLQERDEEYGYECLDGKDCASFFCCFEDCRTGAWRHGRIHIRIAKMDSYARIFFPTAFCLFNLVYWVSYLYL
# Method: as §1
# [3] = molecular target: T2, GABRA1:GABRB2 GABAA receptor (Homo sapiens, UniProt P14867+P47870); experiment: GABA current response in Xenopus laevis oocytes, GABRA1:GABRB2:water; type: cell-based; details: 1:1:10 GABRA1:GABRB2:water injection ratio
# T2 construct: expressed in transfected cells; host or cells: Xenopus laevis oocytes (cRNA injection)
# T2 sequence (P14867 28-456): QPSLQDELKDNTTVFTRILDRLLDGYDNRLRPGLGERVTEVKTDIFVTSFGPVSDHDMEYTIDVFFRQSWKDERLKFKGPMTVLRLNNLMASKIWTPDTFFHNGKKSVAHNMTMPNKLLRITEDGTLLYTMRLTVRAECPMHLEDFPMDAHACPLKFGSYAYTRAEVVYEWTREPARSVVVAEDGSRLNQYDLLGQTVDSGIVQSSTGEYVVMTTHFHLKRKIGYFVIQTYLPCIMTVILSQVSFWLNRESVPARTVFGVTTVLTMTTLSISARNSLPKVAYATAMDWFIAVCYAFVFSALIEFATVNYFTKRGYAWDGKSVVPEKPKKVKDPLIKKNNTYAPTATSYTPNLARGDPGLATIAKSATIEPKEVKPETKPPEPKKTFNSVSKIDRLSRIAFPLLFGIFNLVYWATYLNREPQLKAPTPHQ
# T2 sequence (P47870 26-512): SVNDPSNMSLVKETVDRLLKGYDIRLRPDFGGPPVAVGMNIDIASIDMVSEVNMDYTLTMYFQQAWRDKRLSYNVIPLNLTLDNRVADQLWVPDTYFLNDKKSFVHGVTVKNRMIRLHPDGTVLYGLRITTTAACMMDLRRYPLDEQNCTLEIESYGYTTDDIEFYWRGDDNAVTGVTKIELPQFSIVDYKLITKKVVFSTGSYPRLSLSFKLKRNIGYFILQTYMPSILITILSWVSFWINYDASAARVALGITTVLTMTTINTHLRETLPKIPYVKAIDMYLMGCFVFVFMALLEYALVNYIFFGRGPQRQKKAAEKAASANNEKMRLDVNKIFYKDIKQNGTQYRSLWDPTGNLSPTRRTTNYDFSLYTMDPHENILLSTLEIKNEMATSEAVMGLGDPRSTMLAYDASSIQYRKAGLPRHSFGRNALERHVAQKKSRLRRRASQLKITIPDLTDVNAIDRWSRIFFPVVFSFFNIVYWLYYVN
# Method: as §1
# [4] = molecular target: T3, GABAA receptor containing GABRG2(R43Q) (Homo sapiens, UniProt P14867+P18507+P47870, R82Q/T120M/T181S); experiment: GABA electrophysiological response in Xenopus oocytes, GABRG2(R43Q); type: cell-based; details: oocytes expressing GABRG2 or GABRG2(R43Q)
# T3 construct: expressed in transfected cells; host or cells: Xenopus laevis oocytes (cRNA injection)
# T3 sequence (P14867 28-456): T2 sequence (P14867 28-456)
# T3 sequence (P47870 26-512): T2 sequence (P47870 26-512)
# T3 sequence (P18507 40-467 isoform P18507-1 R82Q/T120M/T181S): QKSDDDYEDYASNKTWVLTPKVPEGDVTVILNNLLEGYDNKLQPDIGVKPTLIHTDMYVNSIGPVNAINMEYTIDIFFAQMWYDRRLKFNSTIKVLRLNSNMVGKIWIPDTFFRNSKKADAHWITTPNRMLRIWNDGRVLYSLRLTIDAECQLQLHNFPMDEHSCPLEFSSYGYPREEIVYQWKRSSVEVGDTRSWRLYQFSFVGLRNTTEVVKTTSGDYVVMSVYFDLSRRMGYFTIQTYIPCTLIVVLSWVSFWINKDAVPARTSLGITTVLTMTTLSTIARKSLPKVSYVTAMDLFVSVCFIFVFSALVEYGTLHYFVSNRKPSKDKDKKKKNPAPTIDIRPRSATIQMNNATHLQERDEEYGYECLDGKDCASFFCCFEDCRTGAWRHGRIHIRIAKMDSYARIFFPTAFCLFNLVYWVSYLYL
# Method: as §1
# [5] = molecular target: T4, mutant [α1β2γ2 (R43Q)] GABAA receptor (Homo sapiens, UniProt P14867+P18507+P47870, R82Q/T120M/T181S); experiment: Zn2+ sensitivity of GABA-activated currents in Xenopus laevis oocytes, R43Q mutant channels; type: cell-based
# T4 construct: expressed in transfected cells; host or cells: Xenopus laevis oocytes (cRNA injection)
# T4 sequence (P14867 28-456): T2 sequence (P14867 28-456)
# T4 sequence (P47870 26-512): T2 sequence (P47870 26-512)
# T4 sequence (P18507 40-467 isoform P18507-1 R82Q/T120M/T181S): T3 sequence (P18507 40-467 isoform P18507-1 R82Q/T120M/T181S)
# Method: as §1
# [6] = molecular target: T5, wild-type (α1β2γ2) GABAA receptor (Homo sapiens, UniProt P14867+P18507+P47870); parameters: expressed in transfected cells; details: correct assembly of GABRA1, GABRB2 and GABRG2; Draguhn et al, 1990; cited from earlier work
# T5 sequence (P18507 40-467 isoform P18507-1 limits assumed, one chain of several): as the sequence (P18507 40-467 isoform P18507-1 limits assumed, one chain of several) above
# [7] = molecular target: T6, GABRA1 and GABRB2 (α1β2) GABAA receptor (Homo sapiens, UniProt P14867+P47870); parameters: expressed in transfected cells; details: GABRA1 and GABRB2 alone; Draguhn et al, 1990; cited from earlier work
# T6 sequence (P14867 28-456): T2 sequence (P14867 28-456)
# T6 sequence (P47870 26-512): T2 sequence (P47870 26-512)
# [8] = molecular target: T5, wild-type (α1β2γ2) GABAA receptor; experiment: Zn2+ sensitivity of GABA-activated currents in Xenopus laevis oocytes, wild-type channels; type: cell-based; parameters: expressed in transfected cells; host or cells: Xenopus laevis oocytes (cRNA injection); details: Zn2+ 10 μM, n=9
# Method: as §1
# [9] = molecular target: T6, GABRA1 and GABRB2 (α1β2) GABAA receptor; experiment: Zn2+ sensitivity of GABA-activated currents in Xenopus laevis oocytes, GABRA1 and GABRB2 alone; type: cell-based; parameters: expressed in transfected cells; host or cells: Xenopus laevis oocytes (cRNA injection)
# Method: as §1
# [10] = molecular target: T7, wild-type GABRA1:GABRB2:GABRG2 (α1β2γ2) GABAA receptor (Homo sapiens, UniProt P14867+P18507+P47870); experiment: Diazepam potentiation of GABA currents, two-electrode voltage clamp in Xenopus laevis oocytes, wild-type channels; type: cell-based; details: GABA 1 μM, diazepam 1 μM
# T7 construct: expressed in transfected cells; host or cells: Xenopus laevis oocytes (cRNA injection)
# T7 sequence (P18507 40-467 isoform P18507-1 limits assumed, one chain of several): as the sequence (P18507 40-467 isoform P18507-1 limits assumed, one chain of several) above
# Method: as §1, with “The oligonucleotide represented by SEQ ID NO:50 (5′ GGATATGACAATAAACTTCAGCCTGATATAGGAGTGAAGCC 3′) was used to incorporate the c245G→A mutation, while the oligonucleotide represented by SEQ ID NO:51 (5′ GCGAATTCATTAAATGGTTGCTGATCTTGGGCG 3′) was used to incorporate the c1168C→T mutation.” left out, “complex. Oocytes were then stored in OR2 buffer (82.5 mM NaCl, 2 mM KCl, 1 mM MgCl2, 5 mM HEPES, pH 7.5, supplemented with 2% foetal bovine serum, 100 U/ml penicillin, 100 μg/ml streptomycin, Life Technologies) and incubated at 18° C. for three to five days to allow for adequate receptor expression.” for “complex.”
# [11] = molecular target: T8, mutant GABRA1:GABRB2:GABRG2(R43Q) [α1β2γ2 (R43Q)] GABAA receptor (Homo sapiens, UniProt P14867+P18507+P47870, R82Q/T120M/T181S); experiment: Diazepam potentiation of GABA currents, two-electrode voltage clamp in Xenopus laevis oocytes, R43Q mutant channels; type: cell-based; details: for small, insignificant decrease in GABA current with diazepam, mean±SEM: GABA 1 μM, diazepam 1 μM, R43Q mutant channels, n=17, a decrease, not a potentiation
# T8 construct: expressed in transfected cells; host or cells: Xenopus laevis oocytes (cRNA injection)
# T8 sequence (P14867 28-456): T2 sequence (P14867 28-456)
# T8 sequence (P47870 26-512): T2 sequence (P47870 26-512)
# T8 sequence (P18507 40-467 isoform P18507-1 R82Q/T120M/T181S): T3 sequence (P18507 40-467 isoform P18507-1 R82Q/T120M/T181S)
# Method: (§2) To test the effects of the GABRG2 mutations on GABAA receptor function, electrophysiological analysis of Xenopus laevis oocytes were conducted. cDNAs encoding the GABRA1, GABRB2 and GABRG2 subunits of the human GABAA receptor were subcloned into pcDNA3.1(+). The c245G→A and c1168C→T mutations were introduced separately into GABRG2 of the human GABAA receptor using the QuickChange site directed mutagenesis kit (Stratagene, La Jolla, Calif.). […] Successful mutagenesis was identified by DNA sequencing. Wild-type and mutant cDNAs were linearised and gel purified and cRNA was made using the T7 RNA polymerase Message Machine in vitro RNA synthesis kit (Ambion). Samples of cRNA were run on denaturing agarose gels to ensure they were the correct size and were not degraded. Xenopus laevis oocytes (stage V or VI) were microinjected with ˜25 ng of cRNA representing the GABAA subunits. A tenfold molar excess of wild-type and mutant GABRG2 was used to promote assembly of the ternary (GABRA1:GABRB2:GABRG2) rather than binary (GABRA1:GABRB2) complex. Oocytes were then stored in OR2 buffer (82.5 mM NaCl, 2 mM KCl, 1 mM MgCl2, 5 mM HEPES, pH 7.5, supplemented with 2% foetal bovine serum, 100 U/ml penicillin, 100 μg/ml streptomycin, Life Technologies) and incubated at 18° C. for three to five days to allow for adequate receptor expression. Current recordings from oocytes were made using a two-electrode voltage clamp (AxoClamp 2B, Axon Instruments), with recordings made at a holding potential of −80 mV. Electrodes were filled with 3 M KCl and were of 1–2 MΩ resistance. Oocytes were continuously perfused with ND96 solution (96 mM NaCl, 2 mM KCl, 1 mM MgCl2, 1.8 mM BaCl2 and 5 mM HEPES, pH 7.5). gamma-Aminobutyric acid (GABA; Sigma-Aldrich, Australia) was applied by bath perfusion.
# [12] = system: GABAA receptor from 50:50 mixture of GABRG2 and GABRG2(R43Q); experiment: Diazepam potentiation in oocytes injected with 50:50 mixture of GABRG2 and GABRG2(R43Q) cRNA; type: cell-based, human; details: n=8
# Method: as §2, with “Current recordings from oocytes were made using a two-electrode voltage clamp (AxoClamp 2B, Axon Instruments), with recordings made at a holding potential of −80 mV. Electrodes were filled with 3 M KCl and were of 1–2 MΩ resistance. Oocytes were continuously perfused with ND96 solution (96 mM NaCl, 2 mM KCl, 1 mM MgCl2, 1.8 mM BaCl2 and 5 mM HEPES, pH 7.5). gamma-Aminobutyric acid (GABA; Sigma-Aldrich, Australia) was applied by bath perfusion.” left out
smiles,measurement,setting,value
"NCCCC(=O)O [GABA, gamma-Aminobutyric acid]",current response to GABA,[1],abolishes responses to GABA; also recorded: no current response
same,current response to GABA,[2],strong current responses
same,current response to GABA,[3],gave current responses
same,electrophysiological responses to GABA versus wild-type GABRG2,[4],indistinguishable
[Zn+2] [Zn^2+],effect of Zn2+ compared with wild-type GABRG2,[5]; GABRG2(R43Q) versus GABRG2 expressing oocytes,same effect
same,partial inhibition of the GABA current by Zn2+,"[5]; Zn2+ 10 μM, R43Q mutant, n=9",40±5%
same,sensitivity of currents to Zn2+,[6],significantly less sensitive
same,sensitivity of currents to Zn2+,[7],extremely sensitive
same,partial inhibition of the GABA current by Zn2+,[8],37±2%
same,GABA-activated current abolished by Zn2+,"[9]; Zn2+ 10 μM, GABA 100 μM, α1β2 alone, n=8",89±7%
same,effect of Zn2+ on GABA-activated currents,[9]; oocytes expressing only GABRA1 and GABRB2,totally abolished
CN1C(=O)CN=C(c2ccccc2)c2cc(Cl)ccc21 [diazepam],"increase of GABA currents by diazepam (potentiation), mean±SEM","[10]; n=20, P<0.01",303±33%
same,"increase of GABA currents by diazepam (potentiation), mean±SEM","[10]; n=20, P<0.01, listed as Diazepam",302±33%
same,"small, insignificant decrease in GABA current with diazepam, mean±SEM",[11],10±6%
same,"small, insignificant decrease in GABA current with diazepam, mean±SEM",[11]; listed as Diazepam,10%±6
same,diazepam potentiation,[11]; receptors containing the GABRG2(R43Q) subunit,completely abolished
same,intermediate diazepam potentiation,[12],129±30%
